We go through four molecules from US20110294952A1, “Optimized Drug Conjugates” (SynDevRX, priority 2010, published 2011).

A short description of series [1]: Aqueous stability of carbamoylfumagillol in buffer. Conditions: for Natural Rate Constant: 37° C., 5 μM. It is filed as physicochemical.
Procedure: At the appropriate time points, a 50 μL sample was withdrawn and diluted with three volumes of methanol containing propranolol as an internal standard (one solution was made for the entire study). The concentration of carbamoylfumagillol in the solution was analyzed by LC/MS/MS over seven days.
In series [2] the test system is A549 cells vs HUVEC cells. The series is described as follows: A549/HUVEC selectivity. In kind it is cell-based, human. Conditions: ratio of IC50 values.
The test system of series [3] is HUVEC cells. The series is described as follows: Human umbilical vein epithelial cell viability assay (CellTiter-Glo). In kind it is cell-based. Particulars: small molecules, 72 hours. The method, then:
(§1) Test compounds, small molecules or polymer conjugates, were dissolved in dimethyl sulfoxide to a stock concentration of 5 mg/mL. The test agents were then diluted to an intermediate concentration at 200 μg/mL in 10% DMSO. Further dilutions were completed serially 3-fold in 10% DMSO to produce 12 decreasing concentrations for in-vitro analysis. To achieve the target concentrations of the in-vitro assays, 1 μL of the intermediate drug preparation was delivered to the cells (seeded in a volume of 50 μL). The final DMSO concentration for the tests was 0.2% for all doses of test agent.
(§2) Data are expressed as the percent cell growth of the untreated (vehicle) control calculated from the luminescence signals. The surviving fraction of cells is determined by dividing the mean luminescence values of the test agents by the mean luminescence values of untreated control. The inhibitory concentration value for the test agent(s) and control were estimated using Prism 5 software (GraphPad Software, Inc.) by curve-fitting the data using the non-linear regression analysis.
The Human umbilical vein epithelial cells (HUVEC) were obtained from Lonza (Basel, Switzerland). […]
HUVEC cells were seeded at 1000 cells per well 24 hours prior to test agent exposure in a volume of 50 μL. […] After incubation, luminescence was recorded using the Molecular Devices AnalystGT multi-mode reader.
A general note: In ATP-based viability assays light output follows the ATP content of the culture.

Series [4] relates to HCT-116 cells. In words: HCT-116 human colon tumor cell viability assay (CellTiter-Glo). It is filed as cell-based. Particulars: small molecules, 72 hours, read-out: HCT116 IC50 Average. The method, then: as §1, §2
The human tumor cell lines A549 and HCT-116 were obtained from American Type Culture Collection (Manassas, Va.). […]
Cells were exposed to twelve increasing concentrations of formulated test agent from 2.3×10^−6 to 4.02 μg/mL for 72 hours. […] After incubation, luminescence was recorded using the Molecular Devices AnalystGT multi-mode reader.

Series [5] concerns A549 cells. In words: A549 human non-small cell lung carcinoma cell viability assay (CellTiter-Glo). It is filed as cell-based. Particulars: small molecules, 72 hours. The protocol:
as §1
Cells were exposed to twelve increasing concentrations of formulated test agent from 2×10^−6 to 4.0 μg/mL for 72 hours. Following 72 hour exposure, 25 μL it of CellTiter-Glo® Reagent was added to each well. The plates were incubated for 60 minutes at 37° C. in a humidified incubator. After incubation, luminescence was recorded using the Molecular Devices AnalystGT multi-mode reader.
Data are expressed as the percent cell growth of the untreated (vehicle) control calculated from the luminescence signals. The surviving fraction of cells is determined by dividing the mean luminescence values of the test agents by the mean luminescence values of untreated control. […]

Series [6] in a line: In vivo pharmacokinetics of polymer conjugate. Conditions: SDX-7539 single bolus IV 30 mg/kg, rat plasma. More on the design: species or system Sprague-Dawley rats. The method, then: FIG. 6 is a graph showing the plasma concentration of the active metabolite, SDX-7539, as a function of time in Sprague-Dawley rats, to which either the polymer conjugate SDX-7320 (single bolus, intravenous injection, 200 mg/kg) or the small molecule SDX-7539 (single bolus, intravenous injection, 30 mg/kg) has been administered.
The polymer conjugate, SDX-7320, or the in vivo release product, SDX-7539 were administered to Sprague-Dawley rats (N=3). Blood was collected over 48 hours after dosing to determine the plasma concentration of SDX-7539 by LC-MS/MS. The LLOQ for SDX-7539 was 2.5 nM. The terminal elimination half-life for SDX-7539 was estimated by fitting a linear regression to the ln [SDX-7539] versus time data. […] Cmax for the polymer is about 2% of the value for the small molecule.

Series [7] has as its system A549 cells. In kind it is in vitro ADME, human. The method, then: Cells were treated as in Example 51 except that at the end of 72 hour exposure to test agent, the cells were frozen (−70° C.) and stored for subsequent evaluation by LC/MS.

In brackets after ≈: the same amount, converted by molar mass.

Take `CO[C@@H]1[C@H](OC(N)=O)CC[C@]2(CO2)[C@H]1[C@@]1(C)O[C@@H]1CC=C(C)C` [Compound O-7127-1, Carbamoylfumagillol]: the “Natural Rate Constant” value in series [1] (pH 4.0 sodium acetate buffer) was determined as 0.0054 h⁻¹; in series [1] (pH 5.3 sodium acetate buffer), 0.0017 h⁻¹; in series [1] (pH 6.7 potassium phosphate buffer), 0.0010 h⁻¹; in series [1] (pH 8.0 potassium phosphate buffer), 0.0011 h⁻¹. Further, the “decomposition over the seven day period” value in series [1] (pH 5.3 to 8.0, 37° C., seven days) is given as “less than 20%”. The “A549/HUVEC IC50 ratio” value in series [2] came out at 33.63.
As a reminder, the IC50 is the concentration at which inhibition is half-maximal. As to `CO[C@@H]1[C@H](OC(=O)N[C@@H](C(N)=O)C(C)C)CC[C@]2(CO2)[C@H]1[C@@]1(C)O[C@@H]1CC=C(C)C` [Compound O-7177, PPI-2458], the figures for the IC50 in series [3], in series [4] and in series [5] were 0.101 ng/mL (≈ 0.238 nM), 0.236 ng/mL (≈ 0.556 nM) and 0.215 ng/mL (≈ 0.506 nM), respectively.
In general, Cmax refers to the highest concentration seen after dosing. Regarding `CO[C@@H]1[C@H](OC(=O)NC2CCC(N)CC2)CC[C@]2(CO2)[C@H]1[C@@]1(C)O[C@@H]1CC=C(C)C` (stereo partly drawn) [SDX-7539], in series [6], the Cmax was ~15 µM and the “half-life of SDX-7539” value is 10 to 15 min.
Take “poly[HPMA-co-MA-GFLG-N-(6-aminohexyl)carbamoylfumagillol]”: the “metabolites identified from treated cells” value in series [7] is “N-(6-aminohexyl)carbamoylfumagillol, fumagill-6-yl {6-[(aminoacetyl)amino]hexyl}carbamate, and the epoxide hydrolysis product, (3S,7aR)-7a-(hydroxymethyl)-4-methoxy-3-methyl-2-(3-methylbut-2-en-1-yl)octahydro-1-benzofuran-3-ol-5-yl 6-aminohexyl carbamate”.
